# Earlier results as cited in US11357752B2, “Carolacton and derivatives thereof for use in the treatment of cell proliferation disorders” (Helmholtz-Zentrum für Infektionsforschung GmbH, priority 2017, dated 2022).
# Test system: MTHFD1 or MTHFD2
# Conditions: prior-art inhibitor, poor activity; cited from earlier work
smiles,measurement,value
Nc1nc2c(c(=O)[nH]1)N1C(=O)N(c3ccc(C(=O)N[C@@H](CCC(=O)O)C(=O)O)cc3)CC1CN2 (stereo partly shown) [LY345899],IC50,128 µM
